What all share (format): cell-based, human
For experiment [1], the system named is αSMA protein expression in Ccd-18co cells. Kind of experiment: TGFβ-stimulated colonic myofibroblasts, αSMA protein expression (Western blot). The protocol:
Colonic human myofibroblast Ccd-18co cells (CRL-1459 from ATCC) were cultured in alpha-MEM (Invitrogen, Carlsbad, Calif.) supplemented with 10% fetal bovine serum and sub-cultured weekly.
Cells were plated at 30-40% confluence. To stimulate a fibrotic phenotype, Ccd-18co cells were serum-starved for 24 h prior to treatment with 1 ng/ml TGFβ or 1 ng/ml TGFβ and increasing doses of CARD-024 (10-1000 nM) for 48 h. Given ethanol was used to dilute CARD-024, ethanol was added to the untreated and TGFβ treated cells to a final concentration of 0.1%. […]
(§1) Total protein was separated by SDS polyacrylamide gel electrophoresis (Bio-Rad,) with prestained protein markers loaded for molecular mass determination (Invitrogen, Carlsbad, Calif.), and transferred to PVDF membranes (Amersham Biosciences, Piscataway, N.J.). Membranes were blocked in 5% milk/TBST solution for 1 h at room temperature or overnight at 4° C. α-smooth muscle actin was detected by incubating the membrane overnight at 4° C. with mouse anti-human monoclonal antibody (Sigma, St. Louis, Mo.) at 1:5000 dilution in 5% milk/TBST.
(§2) pFAK was detected using a rabbit polyclonal phosphospecific antibody against Tyr-397-FAK (Invitrogen) at 1:5000. […] Autoradiographs were scanned and quantitated using ImageJ analysis software (NIH, Bethesda, Md.).
(In western blotting, separated proteins are transferred to a membrane and probed.)

For experiment [2], the system named is fibrogenic genes (col1A1, Fn1, MLCK, ET-1) in Ccd-18co colonic myofibroblasts. Nature of the experiment: TGFβ-stimulated colonic myofibroblasts, fibrogenic gene expression. The settings on record: TGFβ1-stimulated Ccd-18co colonic myofibroblasts. How it is done:
(§3) Cells were plated at 30-40% confluence. To stimulate a fibrotic phenotype, Ccd-18co cells were serum-starved for 24 h prior to treatment with 1 ng/ml TGFβ or 1 ng/ml TGFβ and increasing doses of CARD-024 (10-1000 nM) for 48 h. Given ethanol was used to dilute CARD-024, ethanol was added to the untreated and TGFβ treated cells to a final concentration of 0.1%. For stiffness experiments, low-passage number Ccd-18co cells were seeded at 1×10^5 cells/ml on 6-well plates containing collagen-coated acrylamide gels corresponding to soft (4.3 kPa, 0.02% bisacrylamide) or stiff (28.1 kPa, 0.16%) matrices. Cells were allowed to attach to the matrix for 4 h and then the gels were transferred to new wells to avoid paracrine signaling from cells attached to the plastic well bottom. […]
(§4) RNA from Ccd-18co cells was extracted using the RNeasy kit (Qiagen, Valencia, Calif.). cDNA was generated by reverse transcription of 1 μg of total RNA using the Superscript First Strand RT kit (Invitrogen, Carlsbad, Calif.). Quantitative real-time PCR (qPCR) was performed for MLCK, IL-1β, PTGS2, ET-1, and GAPDH with the TaqMan gene expression assays (ABI, Foster City, Calif.) on a Bio-Rad iCycler real-time PCR system. […] Gene expression was normalized to GAPDH as the endogenous control, and fold-changes (RQ) relative to untreated controls were calculated using the […] (Livak and Schmittgen, 2001).

The test system of experiment [3] is Ccd-18co colonic myofibroblasts. Kind of experiment: Matrix stiffness model: cell morphology, cell length and cell count (microscopy). Particulars: for dendrite length: 1000 nM CARD-024, 24 h. The protocol: (§5) Cells were plated at 30-40% confluence. To stimulate a fibrotic phenotype, Ccd-18co cells were serum-starved for 24 h prior to treatment with 1 ng/ml TGFβ or 1 ng/ml TGFβ and increasing doses of CARD-024 (10-1000 nM) for 48 h. Given ethanol was used to dilute CARD-024, ethanol was added to the untreated and TGFβ treated cells to a final concentration of 0.1%. For stiffness experiments, low-passage number Ccd-18co cells were seeded at 1×10^5 cells/ml on 6-well plates containing collagen-coated acrylamide gels corresponding to soft (4.3 kPa, 0.02% bisacrylamide) or stiff (28.1 kPa, 0.16%) matrices. Cells were allowed to attach to the matrix for 4 h and then the gels were transferred to new wells to avoid paracrine signaling from cells attached to the plastic well bottom. For the CARD-024 stiffness experiments, cells were plated as described above and serum-starved overnight prior to treatment with 1000 nM of CARD-024 diluted in 100% ethanol for 24 h. The 1000 nM CARD-024 dose was selected from the results of the TGFβ experiments. Since ethanol was used to dilute CARD-024, ethanol was added to untreated cells to a final concentration of 0.1%.Experiments were performed on early (4 to 7) passage cells. Cultures were routinely assayed for mycoplasma contamination.
Collagen-coated polyacrylamide gels corresponding to physiological stiffnesses of 2.6 kPa to 28.1 kPa were generated using varying ratios of 40% acrylamide to 2% bisacrylamide (Bio-Rad, Hercules, Calif.) (Aplin and Hughes, 1981; Pelham and Wang, 1998). Specifically, an aqueous solution of 0.10% ammonium persulfate (Bio-Rad), 0.15% TEMED (Bio-Rad), 40% acrylamide solution was supplemented with 0.01%, 0.02%, 0.08%, or 0.16% bisacrylamide. The acrylamide gels were polymerized on a NaOH treated, amino-silanated (3-aminopropyltriethoxysilane), and glutaraldehyde treated 25 mm round glass coverslip. […] of each acrylamide/bisacrylamide solution was filter sterilized and pipetted unto a chloro-silanated glass surface treated with dichlorodimethylsilane (DCDMS) and a treated coverslip was inverted onto the acrylamide/biacrylamide solution. The acrylamide matrix was allowed to polymerize for 10 min between the two surfaces and transferred to a 6-well tissue culture plate containing sterile PBS. As determined by a series of stability experiments (data not shown), the acrylamide gels were stable for at least 1 month. […]
Cells were photographed using a Leica (Leica Microsystems Inc., Buffalo Grove, Ill.) DMIRB inverted microscope and photographed with an Olympus DP-30 camera (Center Valley, Pa.). Cell length was determined from photomicrographs using ImageJ (NIH, Bethesda, Md.). Cell count was determined from a minimum of 3 representative photographs of a 100× magnification field. […]

The test system is the same in experiment [4]. Kind of experiment: Matrix stiffness model: confocal immunofluorescence of focal adhesions (vinculin) and actin stress fibers (phalloidin). The settings on record: stiff substrate, 1000 nM CARD-024. The protocol:
as §5, with “Since ethanol was used to dilute CARD-024, ethanol was added to untreated cells to a final concentration of 0.1%.Experiments were performed on early (4 to 7) passage cells. Cultures were routinely assayed for mycoplasma contamination.” left out
Expression of activated myofibroblast markers was analyzed by confocal immunofluorescence microscopy using the Olympus FluoView™ FV500/IX system (Olympus America, Center Valley, Pa.) at the University of Michigan Microscopy and Image Analysis Laboratory. […]

Experiment [5] deals with αSMA protein expression in colonic myofibroblasts. Nature of the experiment: Matrix stiffness model: αSMA protein expression (Western blot). Particulars: high stiffness substrate, 1000 nM CARD-024. How it is done:
as §3, with “matrices.” for “matrices. Cells were allowed to attach to the matrix for 4 h and then the gels were transferred to new wells to avoid paracrine signaling from cells attached to the plastic well bottom.”
as §1, §2

For experiment [6], the system named is phosphorylation of focal adhesion kinase (FAK). Nature of the experiment: Matrix stiffness model: pFAK protein expression (Western blot). Particulars: high stiffness matrix, 1000 nM CARD-024. The protocol:
as §3
pFAK was detected using a rabbit polyclonal phosphospecific antibody against Tyr-397-FAK (Invitrogen) at 1:5000. […] After washing, the membranes were incubated with the appropriate secondary antibody (anti-mouse IgG+HRP or anti-rabbit IgG+HRP, Amersham, Piscataway, N.J.) for 1 h at room temperature and the signal was detected by the Pierce detection system (Pierce, Rockford, Ill.). Autoradiographs were scanned and quantitated using ImageJ analysis software (NIH, Bethesda, Md.).

For another experiment, the system named is MLCK gene expression. Nature of the experiment: Matrix stiffness model: QRT-PCR of MLCK. The settings on record: high stiffness substrate, 1000 nM CARD-024. How it is done:
as §3, §4

The next experiment relates to ET-1 gene expression. Nature of the experiment: Matrix stiffness model: QRT-PCR of ET-1. Particulars: high stiffness conditions, 1000 nM CARD-024. How it is done: as §3, §4
The test system of experiment [7] is PTGS2 (which encodes the COX-2 enzyme). Kind of experiment: Matrix stiffness model: QRT-PCR of PTGS2. The settings on record: low and high stiffness, 1000 nM CARD-024. The protocol:
as §3, §4

The test system of a further experiment is IL-1β expression. Nature of the experiment: Matrix stiffness model: QRT-PCR of IL-1β. Particulars: 1000 nM CARD-024, relative to untreated/low stiffness. How it is done: as §3, §4
Another experiment concerns colA1 gene expression. Kind of experiment: Matrix stiffness model: expression of colA1. The settings on record: CARD-024 treatment. How it is done:
as §5
(§6) Prior to seeding with colonic myofibroblasts, the acrylamide gels were collagen-coated. […]

In another experiment the test system is Fn-1 gene expression. Kind of experiment: Matrix stiffness model: expression of Fn-1. The settings on record: CARD-024 treatment. The protocol: as §5, §6

Consider `C=C1/C(=C\C=C2/CCC[C@]3(C)[C@@H]([C@H](C)CC[C@@H](CC)C(C)C)CC[C@@H]23)C[C@@H](O)C[C@@H]1O` [CARD-024, (1S,3R)-(5Z,7E)-9,10-Secositosta-5,7,10(19)-triene-1,3-diol], for which, in [1] (Ccd-18co cells stimulated with TGFβ, 10-1000 nM CARD-024), the “αSMA protein expression, dose response” value is “attenuated αSMA protein expression in a dose-responsive manner”. Also, the “attenuation of αSMA protein expression” value in experiment [1] (Ccd-18co cells, 1 ng/ml TGFβ, 1000 nM CARD-024, 48 h, normalized to GAPDH, p=0.012) is recorded as 2 fold. Further, the fibrogenic gene expression entry in experiment [2] is reported as “minimal impact on fibrogenic gene expression”. The results for the dendrite length in [3] (high stiffness (28.1 kPa) matrix) and in experiment [3] (low stiffness (4.3 kPa) matrix) were 145 μm and 146 μm, respectively. Moreover, the cell morphology result in experiment [3] (high stiffness substrate, 1000 nM CARD-024) is given as “repressed the effects of matrix stiffness on cell morphology”. Besides, in [3] (stiff matrix (28.1 kPa), 1000 nM CARD-024, not significant), the “reduction in cell number compared to untreated cells” value is reported as 50%. The “focal adhesions (vinculin staining)” value in [4] is “inhibited focal adhesion maturation”. Moreover, the αSMA expression result in [5] is reported as “repressed αSMA expression on the high stiffness substrate to levels indistinguishable from the low stiffness substrate”. For the same molecule, the FAK phosphorylation entry in [6] is reported as “inhibited FAK phosphorylation”. For the same molecule, the MLCK expression entry in the experiment on MLCK gene expression is “significantly repressed MLCK expression to levels comparable to untreated cells on the low stiffness substrate”. In addition, the ET-1 expression entry in the experiment with ET-1 gene expression is recorded as “significantly repressed ET-1 expression in high stiffness conditions to levels indistinguishable from low stiffness conditions”. Also, the PTGS2 expression result in [7] is “induced PTGS2 at both low and high stiffness”. Further, the “induction of IL-1β expression” value was 1.8 fold in the experiment on IL-1β expression (high stiffness, p=0.002) and 4 fold in the experiment with IL-1β expression (low stiffness). The colA1 expression result in the experiment on colA1 gene expression is listed as “did not repress”. Moreover, the Fn-1 expression result in the experiment with Fn-1 gene expression is reported as “did not repress”.

These data come from patent publication US9517241B2, “Amelioration of intestinal fibrosis and treatment of Crohn's disease” (THE REGENTS OF THE UNIVERSITY OF MICHIGAN, priority 2013, dated 2016).
